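Method: 48-hour compound exposure of cells in 96-well plates, five concentrations, linear interpolation of endpoints. At the GI50, growth is halved.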 The source made the active and inactive calls. No stated cut-off is given here; in the data, active = GI50 up to about 1.1 µM and inactive = higher.
Key:
Assay in all cases: inhibition of tumour cell growth, NCI panel, 48 h
[1] = system: SF-295
[2] = system: DU-145
[3] = system: HOP-92
[4] = system: SK-MEL-5
[5] = system: KM12
[6] = system: 786-0
[7] = system: EKVX
[8] = system: CAKI-1
[9] = system: SF-268
[10] = system: TK-10
[11] = system: UO-31
[12] = system: NCI-H23
[13] = system: SNB-75
[14] = system: SNB-19
[15] = system: HL-60
[16] = system: MCF7
[17] = system: UACC-257
[18] = system: MDA-MB-435
[19] = system: SR
[20] = system: M14

Structure (SMILES) | GI50 [1] | GI50 [2] | GI50 [3] | GI50 [4] | GI50 [5] | GI50 [6] | GI50 [7] | GI50 [8] | GI50 [9] | GI50 [10] | GI50 [11] | GI50 [12] | GI50 [13] | GI50 [14] | GI50 [15] | GI50 [16] | GI50 [17] | GI50 [18] | GI50 [19] | GI50 [20]
C[N+](C)(C)CC1CCCCCCCCCCC1=O (stereo not given) | > 100 µM (inactive) | > 100 µM (inactive) | > 100 µM (inactive) | > 100 µM (inactive) | > 100 µM (inactive) | > 100 µM (inactive) | > 100 µM (inactive) | > 100 µM (inactive) | > 100 µM (inactive) | > 100 µM (inactive) | > 100 µM (inactive) | > 100 µM (inactive) | > 100 µM (inactive) | > 100 µM (inactive) | > 100 µM (inactive) | > 100 µM (inactive) | > 100 µM (inactive) | > 100 µM (inactive) | > 100 µM (inactive) | > 100 µM (inactive)
Oc1nc(S)nc2nc3c4cccnc4c4ccccc4c3nc12 | > 100 µM (inactive) | > 100 µM (inactive) | > 100 µM (inactive) | > 100 µM (inactive) | 79.8 µM (inactive) | > 100 µM (inactive) | > 100 µM (inactive) | > 100 µM (inactive) | > 100 µM (inactive) | > 100 µM (inactive) | > 100 µM (inactive) | > 100 µM (inactive) | 48.4 µM (inactive) | > 100 µM (inactive) | 30.9 µM (inactive) | 88.3 µM (inactive) | > 100 µM (inactive) | > 100 µM (inactive) | 50.4 µM (inactive) | > 100 µM (inactive)
CN(C)CCNCCCNc1c2ccccc2nc2cccc([N+](=O)[O-])c12 | < 0.0163 µM (active) | < 0.0159 µM (active) | < 0.0156 µM (active) | < 0.0181 µM (active) | 0.027 µM (active) | < 0.0126 µM (active) | < 0.017 µM (active) | 0.0385 µM (active) | < 0.016 µM (active) | 0.046 µM (active) | 0.0741 µM (active) | < 0.0121 µM (active) | 0.0173 µM (active) | 0.0298 µM (active) | < 0.0139 µM (active) | 0.0102 µM (active) | 0.22 µM (active) | < 0.0144 µM (active) | < 0.01 µM (active) | 0.0224 µM (active)
C/N=C(N)/N=C(\N)Nc1cc2ccccc2c2ccccc12 | 17.1 µM (inactive) | 15.2 µM (inactive) | 14.9 µM (inactive) | 16.5 µM (inactive) | 17.1 µM (inactive) | 12.4 µM (inactive) | 16.3 µM (inactive) | 14.5 µM (inactive) | 13.4 µM (inactive) | 13 µM (inactive) | 11.9 µM (inactive) | 17.1 µM (inactive) | 13 µM (inactive) | 15.8 µM (inactive) | 4.06 µM (inactive) | 13.2 µM (inactive) | 16.7 µM (inactive) | 15.9 µM (inactive) | 13.8 µM (inactive) | 17 µM (inactive)
CC(=O)NNc1nc(C)c(C(=O)/C=C/C=C/c2ccccc2)s1 | > 100 µM (inactive) | 54.5 µM (inactive) | > 100 µM (inactive) | > 100 µM (inactive) | 29.6 µM (inactive) | 62.7 µM (inactive) | 24.2 µM (inactive) | > 100 µM (inactive) | > 100 µM (inactive) | > 100 µM (inactive) | > 100 µM (inactive) | > 100 µM (inactive) | > 100 µM (inactive) | > 100 µM (inactive) | 44.4 µM (inactive) | > 100 µM (inactive) | 66.7 µM (inactive) | > 100 µM (inactive) | 80.9 µM (inactive) | 48.9 µM (inactive)
